Assays:
Type in all cases: cell-based
SOD2/MnSOD = assay: Western blot of SOD2/MnSOD levels in SW480 cells; conditions: SW480, 6.3 μM, 24 and 72 h, relative to control
Procedure: (§1) SW480 cells were seeded in 6-well plates and treated as described in the previous subsection. After 24, 48 or 72 h of incubation, adherent cells were washed twice with ice-cold DPBS and incubated with lysis buffer (0.2% Triton X-100, 0.5 mM sodium deoxycholate, 1 mM Na-EDTA, 1 mM DTT, 20 mM Tris–HCl (pH 7.5), 0.5% phosphatases inhibitor cocktail, and 1% proteases inhibitor cocktail) for 30 min at 4 °C. The cells were scraped, sonicated, and centrifuged at 120 00 × g (20 min at 4 °C). […] The gels were then transferred to PVDF membranes, which were blocked with 5% skim milk in PBS-Tween-20 (0.1%) for 1 h at room temperature. Subsequently, the membranes were incubated with the primary antibodies for 30 mi at room temperature (actin) or overnight at 4 °C (CDK4, CDK6, cyclin A, Rb and SOD2/MnSOD). After incubation, the membranes were washed with PBS-Tween-20 (0.1%) and incubated with anti-mouse secondary antibody (40 min) or anti-rabbit secondary antibody (1 h) at room temperature. Finally, the membranes were washed with PBS-Tween-20 (0.1%) and treated with the Immobilon Western Chemiluminescent HRP Substrate Kit, and autoradiography was performed using an FPM-100A film processor (Fujifilm, Tokyo, Japan). western blot results were obtained from three independent experiments, except for cyclin A at 24 h (n = 2), Rb protein at 24 and 72 h (n = 2), and SOD2 (MnSOD) at 72 h (n = 2).

CDK4 = assay: Western blot of CDK4 levels in SW480 cells; conditions: SW480, 6.3 μM, relative to control
Procedure: as §1

SW620 cells = assay: MTT cell viability assay in SW620 cells; conditions: Homo sapiens, SW-620, 72 h, read-out: IC50 SW620
Procedure: (§2) The MTT assay was used to assess the effect of the compounds on cell viability. For this purpose, A375 (1500 cells per well), BJ (10 000 cells per well), Caco-2 (4000 cells per well), HCT116 (3000 cells per well), Mia Paca-2 (2000 cells per well), SW480 (6000 cells per well), and SW620 (8000 cells per well) cells were seeded in 96-well plates and incubated for 24 h. Subsequently, the culture medium was switched with a new medium containing DMSO (control) or the compound at a specified concentration. Following a 72 h incubation period, the supernatant was aspirated, and 100 μL of a mixture (1 : 1) of filtered MTT solution (1 mg per mL PBS) and FBS-free medium was added. The plates were then incubated for 1 h at 37 °C. After this time, the supernatant was aspirated, and the formazan crystals were dissolved in 100 μL of DMSO in each well. Relative cell viability was calculated by measuring absorbance at 570 nm using a Benchmark Plus Microplate Reader (Bio-Rad Laboratories, Hercules, CA, USA). Results are presented as the mean ± standard deviation (SD) of IC50 values, determined by nonlinear regression analysis of dose–response curves (log(inhibitor) vs. response with variable slope (four parameters)) using GraphPad Prism 9 software (GraphPad Software, San Diego, CA, USA).

SW480 cells [1] = assay: MTT cell viability assay in SW480 cells
Procedure: as §2

Mia Paca-2 cells = assay: MTT cell viability assay in Mia Paca-2 cells; conditions: Homo sapiens, MIA PaCa-2, 72 h, read-out: IC50 Mia Paca-2
Procedure: as §2

[2] = test system: intracellular ROS levels in SW480 cells; assay: Intracellular ROS quantification assay (H2DCFDA, flow cytometry); conditions: SW480, 6.3 μM
Procedure: Intracellular ROS levels can be quantified using lipophilic and non-fluorescent probes, such as 2′,7′-dichlorodihydrofluorescein diacetate (H2DCFDA).[60] To assess the effect of compound 17 on intracellular ROS levels, SW480 cells were treated with compound 17, followed by incubation with the H2DCFDA probe after 24, 48, and 72 h of treatment. After, the cells were subjected to flow cytometry to quantify the fluorescence intensity of 2′,7′-dichlorofluorescein (DCF), as shown in Fig. 9. […] Both effects of compound 17 contributed to the inhibition of SW480 cell growth.
SW480 cells were seeded at a density of 1.68 × 10^5 cells per well in 6-well plates and incubated at 37 °C for 24 h. The cells were then treated with compound 17 (IC50 value) for 24, 48, or 72 h. The adherent cells were trypsinized, washed with DPBS, collected by centrifugation, and resuspended in 1 mL of HBSS containing 50 μM H2DCFDA probe and 2 mM L-glutamine. After 45 min of incubation at 37 °C in a cell culture incubator, the cell suspensions were washed with 2 mL DPBS and collected by centrifugation. The cells were then stained with 350 μL of DPBS containing 20 μg per mL PI solution (1 mg mL^−1). Inside the cells, the H2DCFDA probe is deacetylated and undergoes oxidation in the presence of ROS, transforming into a DCF fluorescent compound. The fluorescence emitted by DCF from 1 × 10^4 PI-negative cells was measured at 520 nm using a Gallios flow cytometer (Beckman Coulter, Brea, CA, USA).

SW480 cells [3] = assay: Cell cycle assay (PI, flow cytometry)
Procedure: To validate this hypothesis, compound 17 was administered at 6.3 μM to SW480 cells and incubated for 24, 48, and 72 h. Following each incubation period, the cells were fixed and permeabilized with 70% cold ethanol and stained with PI before flow cytometry analysis. At 24 h, compound 17 caused cell cycle arrest at the G0/G1 phase, as evidenced by a significant increase in the percentage of SW480 cells, from 54% in the control group to 66% in the treated group (Fig. 6). […] At 72 h, compound 17 had no impact on the cell cycle of SW480 cells, as observed in Fig. 6.
SW480 cells were seeded, treated, incubated, and collected, as described for the apoptosis assay. After centrifugation, the cells were resuspended in 500 μL DPBS, added dropwise to 4.5 mL of 70% (v/v) cold ethanol, and stored at −20 °C for at least 4 h. Each cell suspension was centrifuged, washed with cold DPBS, and resuspended in 350 μL DPBS and 10 μL RNase (10 mg mL^−1). After 1 h of incubation at 37 °C with agitation, the cells were stained with 20 μL of PI solution (1 mg mL^−1). A Gallios flow cytometer (Beckman Coulter, Brea, CA, USA) at a wavelength of 488 nm was used for FACS analysis. Data from 1 × 10^4 cells were collected, and a multicycle software (Phoenix Flow Systems, San Diego, CA, USA) was used for cell cycle analysis.

[4] = SW480 cells, ratio of IC50 values

Question: What does the source list for `CC(=O)Oc1c(C(C)C)cc2c(c1OC(C)=O)[C@@]1(NC(=O)OCC(C)C)CCCC(C)(C)[C@@H]1CC2` [Compound 17, (4bR,8aS)-8,8-Dimethyl-4b-{[(2-methylpropoxy)carbonyl]amino}-2-(propan-2-yl)-4b,5,6,7,8,8a,9,10-octahydrophenanthrene-3,4-diyl diacetate]?
Answer: expression of SOD2/MnSOD (SOD2/MnSOD): significantly increased; CDK4 protein level (CDK4; 24 h): significantly reduced; CDK4 protein level (CDK4; 48 h): lower than those in the control group; CDK4 protein level (CDK4; 72 h): reduction; IC50 (SW620 cells): 10 ± 1 µM; IC50 (SW480 cells [1]; Homo sapiens, SW480, 72 h, read-out: IC50 SW480): 6.3 ± 0.5 µM; fold more active than cisplatin (SW480 cells [1]; [4]): 2.4 fold; fold more potent than CA 1 (SW480 cells [1]; [4]): 3.5 fold; IC50 (Mia Paca-2 cells): 7.5 ± 0.6 µM; intracellular ROS levels relative to untreated cells ([2]; 24 h (control 100%)): 70%; intracellular ROS levels relative to untreated cells ([2]; 48 h (control 100%)): 157%; intracellular ROS levels relative to untreated cells ([2]; 72 h (control 100%)): 290%; percentage of SW480 cells in G0/G1 phase (SW480 cells [3]; 6.3 μM, 24 h (control 54%)): 66%; percentage of SW480 cells in S phase (SW480 cells [3]; 6.3 μM, 48 h (control 30%)): 40%; effect on the cell cycle (SW480 cells [3]; SW480, 6.3 μM, 72 h): no impact

Reference: PMC12498136, “Synthesis and biological evaluation of novel carnosic acid derivatives with anticancer activity” (RSC Advances, 2025)
